Experimental data published in patent US7365160B2, “Mutated constitutively active nuclear orphan receptor” (The United States of America as represented by the …, priority 2002, dated 2008).
Residue numbers refer to the chain shown, from its start. In names and notes the source's numbering stands.

Assays:
[1] = target: wild-type mouse CAR (mCAR; nuclear orphan receptor constitutively active receptor / constitutive androstane receptor) (mouse); assay: cell-based or functional assay
[2] = target: mCAR T350M mutant (mouse); assay: cell-based or functional assay
[3] = tested on: chimeric receptors hmm and hhm; assay: luciferase reporter assay in HepG2 cells, chimeric receptors with mouse LBD; format: cell-based, mouse/human
mCAR [4] = target: T1, mCAR (Mus musculus, UniProt O35627); conditions: Kawamoto et al. 2000; cited from earlier work
T1 construct: mCAR and hCAR expression vectors were constructed by cloning an entire mCAR; expressed in transfected cells; host or cells: HepG2
T1 sequence (O35627 1-358): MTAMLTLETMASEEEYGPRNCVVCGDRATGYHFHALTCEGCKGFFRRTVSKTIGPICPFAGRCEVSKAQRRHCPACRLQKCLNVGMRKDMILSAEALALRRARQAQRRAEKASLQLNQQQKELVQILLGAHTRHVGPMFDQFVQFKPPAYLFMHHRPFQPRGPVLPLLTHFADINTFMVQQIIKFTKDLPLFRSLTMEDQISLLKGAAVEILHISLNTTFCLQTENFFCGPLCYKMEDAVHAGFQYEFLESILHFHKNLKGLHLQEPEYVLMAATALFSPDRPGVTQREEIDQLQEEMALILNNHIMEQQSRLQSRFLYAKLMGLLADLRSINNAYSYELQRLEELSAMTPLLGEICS

mCAR [5] = target: T1, mCAR; assay: cell-based transfection assay, (NR1)5-tk-luciferase reporter in HepG2 cells, wild-type mCAR; conditions: for degree of repression: not affected by the mutation of Thr350
Excerpt: mCAR and hCAR expression vectors were constructed by cloning an entire mCAR (GenBank Accession No: AF009327, deposited on Jul. 22, 1997; SEQ ID NO: 15) or hCAR (GenBank Accession No: Z30425, deposited on Mar. 8, 1994; SEQ ID NO: 17) coding sequence into BamHI and XhoI sites of pCR3 plasmid as described previously (Sueyoshi et al., J Biol Chem 274:6043-6, 1999). Polymerase chain reaction (PCR) was used to amplify the desired hCAR or mCAR fragment from the plasmid. The amplified fragments used for the chimeras were nucleotides encoding amino acids: 1 to 86 of mCAR and 77 to 348 of hCAR (mhh), 1 to 116 of mCAR and 107 to 348 of hCAR (mmh), 1 to 76 of hCAR and 87 to 358 of mCAR (hmm), 1 to 106 of hCAR and 117 to 358 of mCAR (hhm). These fragments were PCR amplified using pfu polymerase and enzymatically phosphorylated primers. The amplified fragments were ligated, and a second PCR amplification was performed on the ligated DNA with the primers for 5′ and 3′ end of the chimeric DNA. The resulting second PCR products were cloned into a pCR3 vector (Invitrogen) with newly created BamHI and XhoI sites at the 5′ and the 3′ ends, respectively.
A mouse SRC-1 cDNA corresponding to amino acid residues 633 to 1450 of SRC-1 (GenBank Accession No: U64828), was amplified and cloned into the EcoRI and Hind III site of pcDNA3.1/myc-His(−)B plasmid (Invitrogen), thereby generating the SRC-1-expression plasmid pcDNA3.1-SRC-1. Wild-type mCAR or mCART350M was co-transfected with or without the SRC-1-expression plasmid (0.1 μg) into HepG2 cells.
The KN-62 repression was examined with and without the co-expression of SRC-1 (EXAMPLE 3).

hCAR = target: T2, hCAR (Homo sapiens, UniProt Q14994); conditions: Kawamoto et al. 2000; cited from earlier work
T2 construct: expressed in transfected cells; host or cells: HepG2
T2 sequence (Q14994 1-348 isoform Q14994-2): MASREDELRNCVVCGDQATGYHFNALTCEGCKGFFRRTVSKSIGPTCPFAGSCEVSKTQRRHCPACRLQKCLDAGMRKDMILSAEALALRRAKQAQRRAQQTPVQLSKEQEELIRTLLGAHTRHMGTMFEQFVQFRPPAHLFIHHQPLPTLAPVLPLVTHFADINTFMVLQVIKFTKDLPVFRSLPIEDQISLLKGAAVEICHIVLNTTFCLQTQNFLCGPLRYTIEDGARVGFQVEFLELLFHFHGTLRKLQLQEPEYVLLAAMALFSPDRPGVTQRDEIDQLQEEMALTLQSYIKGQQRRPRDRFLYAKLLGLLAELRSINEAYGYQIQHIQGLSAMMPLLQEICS

mCART350M = target: T3, mCART350M (Mus musculus, UniProt O35627, T350M); assay: luciferase reporter assay in HepG2 cells, mutant mCART350M; format: cell-based
T3 construct: mCAR and hCAR expression vectors were constructed by cloning an entire mCAR; expressed in transfected cells; host or cells: HepG2
T3 sequence (O35627 1-358 T350M): T1 sequence (O35627 1-358) with T350M
Description: The transfected cells were then treated, and luciferase assays performed as described in EXAMPLE 1.
To determine if this effect could be disrupted by mutating Thr350 to a Met, the mCART350M mutant described in EXAMPLE 2 was used. The KN-62 repression was examined with and without the co-expression of SRC-1 (EXAMPLE 3).

[6] = tested on: chimeric receptors mh159, mh224, mh315, mh345; assay: luciferase reporter assay in HepG2 cells, chimeric receptors within the LBD; format: cell-based, mouse/human
mCAR T176V / T176L = assay: luciferase reporter gene activation assay (PBREM) in HepG2 cells, mCAR Thr176 mutants; conditions: T176V or T176L; did not require exogenous SRC-1
mCAR L352A = target: T4, mCAR L352A (Mus musculus, UniProt O35627, L352A); assay: luciferase reporter gene activation assay (PBREM) in HepG2 cells, mCAR L352A mutant; format: cell-based; conditions: only in the presence of exogenous SRC-1
T4 construct: mCAR and hCAR expression vectors were constructed by cloning an entire mCAR; expressed in transfected cells; host or cells: HepG2
T4 sequence (O35627 1-358 L352A): T1 sequence (O35627 1-358) with L352A
Excerpt: To examine the role of Leu352 in mCAR activity, site-directed mutagenesis was used as described in EXAMPLES 2 and 6.

[7] = tested on: PB-responsive enhancer module (PBREM) luciferase reporter; assay: constitutive activity of mutated CAR in luciferase reporter gene activation assay in HepG2 cells; conditions: mCAR mutants versus mCAR

## mouse steroid receptor co-activator 1 (SRC-1), amino acid residues 633 to 1450 (from UniProt P70365 633-1447)
[1]
  trans-activation activity (NR1-luciferase reporter gene activity in co-transfected HepG2 cells, relative to DMSO-treated cells): 3 to 4 fold
[2]
  trans-activation activity (NR1-luciferase reporter gene activity in co-transfected HepG2 cells, relative to DMSO-treated cells): 3 to 4 fold

## CN([C@@H](Cc1ccc(OS(=O)(=O)c2cccc3cnccc23)cc1)C(=O)N1CCN(c2ccccc2)CC1)S(=O)(=O)c1cccc2cnccc12 [KN-62]
[3]; chimeras hmm and hhm
  repression of chimera activity: 2-4 fold
mCAR [4]
  repression of constitutive activity of mCAR: represses
mCAR [5]; in the absence of SRC-1
  degree of repression: 20-30%
mCAR [5]; in the presence of co-expressed SRC-1
  degree of repression: 80%
mCAR [5]; wild-type mCAR, KN-62 0.1-10 μM, with and without SRC-1
  repression of receptor activity by KN-62: similarly repressed
hCAR
  repression of constitutive activity of hCAR: not hCAR
mCART350M; mCART350M, KN-62 0.1-10 μM, with and without SRC-1
  repression of receptor activity by KN-62: similarly repressed

## CC(=O)[C@H]1CC[C@H]2[C@@H]3CCC4=CC(=O)CC[C@]4(C)[C@H]3CC[C@]12C [progesterone]
[6]
  repression of chimeric receptor activity: None of these chimeric receptors was repressed

## Clc1cnc(Oc2ccc(Oc3ncc(Cl)cc3Cl)cc2)c(Cl)c1 [TCPOBOP, 1,4-bis [2-(3,5-dichloropyridyloxy)]benzene]
[3]; chimeras hmm and hhm repressed by KN-62
  re-activation of KN-62-repressed chimeric receptors: re-activated
mCAR T176V / T176L
  activation of mutated mCAR: effectively activated
mCAR L352A
  activation of L352A mutant: activated

## C[C@]12CC[C@H]3[C@@H](CCC4=CC(=O)CC[C@@]43C)[C@@H]1CC[C@@H]2O [testosterone]
mCAR [5]; wild-type mCAR, HepG2 cells, 24 hours treatment
  repression of mCAR activity (luciferase reporter): repressed
mCART350M; HepG2 cells
  repression of mCART350M activity: not the T350M mutant

## CN(C)CCCN1c2ccccc2Sc2ccc(Cl)cc21 [chloropromazine]
mCAR L352A
  activation of L352A mutant: activated

B1: SRC-1: co-activator steroid receptor co-activator 1, mouse residues 633 to 1450 expressed from pcDNA3.1-SRC-1 (protein)
chain: TSHKLVQLLTTTAEQQLRHADIDTSCKDVLSCTGTSSSASSNPSGGTCPSSHSSLTERHKILHRLLQEGSPSDITTLSVEPEKKDSVPASTAVSVSGQSQGSASIKLELDAAKKKESKDHQLLRYLLDKDEKDLRSTPNLCLDDVKVKVEKKEQMDPCNTNPTPMTKPAPEEVKLESQSQFTADLDQFDQLLPTLEKAAQLPSLCETDRMDGAVTGVSIKAEVLPASLQPTTARAAPRLSRLPELELEAIDNQFGQPGAGDQIPWANNTLTTINQNKPEDQCISSQLDELLCPPTTVEGRNDEKALLEQLVSFLSGKDETELAELDRALGIDKLVQGGGLDVLSERFPPQQATPPLMMEDRPTLYSQPYSSPSPTAGLSGPFQGMVRQKPSLGAMPVQVTPPRGTFSPNMGMQPRQTLNRPPAAPNQLRLQLQQRLQGQQQLMHQNRQAILNQFAANAPVGMNMRSGMQQQITPQPPLNAQMLAQRQRELYSQQHRQRQIIQQQRAMLMRHQSFGNNIPPSSGLPVQMGTPRLPQGAPQQFPYPPNYGTNPGTPPASTSPFSQLAANPEASLATRSSMVNRGMAGNMGGQFGAGISPQMQQNVFQYPGPGLVPQGEATFAPSLSPGSSMVPMPVPPPQSSLLQQTPPTSGYQSPDMKAWQQGTMGNNNVFSQAVQSQPAPAQPGVYNNMSITVSMAGGNANIQNMNPMMGQMQMSSLQMPGMNTVCSEQMNDPALRHTGLYCNQLSSTDLLKTDADGNQQVQQVQVFADVQCTVNLVGGDPYLNQPGPLGTQKPTSGPQTPQAQQKSLLQQLLTE
mCAR [5]; wild-type mCAR, relative to DMSO-treated cells
  increase of trans-activation activity by co-expression: 3- to 4 fold
mCART350M; mCART350M, relative to DMSO-treated cells
  increase of trans-activation activity by co-expression: 3- to 4 fold

B2: T176V: mCAR with single mutation of Thr176 to valine (protein, UniProt O35627 1-358, looked up, variant T176V)
Nuclear receptor subfamily 1 …: T1 sequence (O35627 1-358) with T176V
[7]
  constitutive activity of mCAR: decreased

B3: L352A: mCAR with Ala substitution of Leu352 (protein, UniProt O35627 1-358, looked up, variant L352A)
Nuclear receptor subfamily 1 …: T1 sequence (O35627 1-358) with L352A
[7]
  constitutive activity of mCAR: decreased

B4: T176L: mCAR with single mutation of Thr176 to leucine (protein, UniProt O35627 1-358, looked up, variant T176L)
Nuclear receptor subfamily 1 …: T1 sequence (O35627 1-358) with T176L
[7]
  constitutive activity of mCAR: decreased
